# Reference: patent publication US20240400579A1, “SPIROCYCLIC MODULATORS OF CHOLESTEROL BIOSYNTHESIS AND THEIR USE FOR PROMOTING REMYELINATION” (GENENTECH, INC., priority 2021, published 2024)
# Like-named read-outs stand apart in the source and are kept apart here.
# What was measured:
# [1] = target: human emopamil binding protein and human 7-dehydrocholesterol reductase co-expressing cell membrane (Homo sapiens (Human), UniProt Q15125); experiment: hEBP-DHCR7 radioligand filtration binding assay with [3H]-Compound 118A*; settings: radioligand [3H]-Compound 118A*; HEK293 membrane co-expressing hEBP and DHCR7
# Procedure, shortened: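 HEK293 membranes transiently co-expressing hEBP and hDHCR7 (10 μg/well) were incubated with [3H]-Compound 118A* (added at 25 nM) and compounds (8 doses, final 0.06–5000 nM, n=2) for 3 h at 22 °C. Bound radioactivity was read after PEI-treated GF/B filtration. IC50 came from a Hill fit of % inhibition and was converted to Ki.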
# [2] = system: zymostenol accumulation in EpiSC-derived OPCs (EBP); experiment: GC/MS-based sterol profiling, zymostenol accumulation; format: cell-based, mouse; settings: 8 doses from 0.15 nM to 333 nM, read-out: mZymo GCMS EC50
# Procedure, shortened: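 EpiSC-derived mouse OPCs plated at 100,000 cells/well in N2B27 without growth factors and treated 24 h. Sterols extracted, silylated with BSTFA and measured by GC/MS (EI, full scan), quantified against cholesterol-d7. Zymostenol normalized to levels after 24 h with 100 nM positive control reference.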
# EpiSC-derived OPCs = experiment: In vitro phenotypic screening of OPCs, MBP high-content imaging; format: cell-based, mouse; settings: percentage of MBP+ oligodendrocytes, 3 days, 0.5 nM to 1000 nM, read-out: mOPC EC50
# Procedure, shortened: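 Mouse EpiSC-derived OPCs seeded without growth factors and exposed 3 days at 37° C. to 8-point doses, 1000 nM to 0.5 nM final. Fixed cells stained for MBP and DAPI; high-content imaging gave percentage MBP+ oligodendrocytes, with EC50 from Hill-equation fit.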
# Chain of human emopamil binding protein and human 7-dehydrocholesterol reductase co-expressing cell membrane (Q15125 whole entry): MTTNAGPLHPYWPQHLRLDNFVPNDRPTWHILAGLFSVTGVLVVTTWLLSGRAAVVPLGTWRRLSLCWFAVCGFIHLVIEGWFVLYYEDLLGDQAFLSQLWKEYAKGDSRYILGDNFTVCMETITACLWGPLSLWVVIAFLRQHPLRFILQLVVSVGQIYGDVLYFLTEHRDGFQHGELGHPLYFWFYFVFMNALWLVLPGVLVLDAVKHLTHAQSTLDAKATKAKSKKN
Structure (SMILES),Ki [1] [nM],EC50 ([2]; 24 hours) [nM],EC50 (EpiSC-derived OPCs) [nM],"EC50 ([2]; Mus musculus, 24 h) [nM]","EC50 (EpiSC-derived OPCs; Mus musculus, 72 h) [nM]"
"C[C@@H](Cc1ccc([C@H]2CC[C@](O)(C(F)(F)F)CC2)c(Cl)c1)CN1CCC2(C1)CS(=O)(=O)C2 (stereo in doubt) [116A*, 6-((S)-3-(3-Chloro-4-((1s,4R)-4-hydroxy-4-(trifluoromethyl)cyclohexyl)phenyl)-2-methylpropyl)-2-thia-6-azaspiro[3.4]octane 2,2-dioxide, 6-((R)-3-(3-chloro-4-((1s,4S)-4-hydroxy-4-(trifluoromethyl)cyclohexyl)phenyl)-2-methylpropyl)-2-thia-6-azaspiro[3.4]octane 2,2-dioxide]",10.5,0.49,1.6,,
"C[C@H](Cc1ccc([C@H]2CC[C@](O)(C(F)(F)F)CC2)c(Cl)c1)CN1CCC2(C1)CS(=O)(=O)C2 (stereo in doubt) [116B*, 6-((S)-3-(3-Chloro-4-((1s,4S)-4-hydroxy-4-(trifluoromethyl)cyclohexyl)phenyl)-2-methylpropyl)-2-thia-6-azaspiro[3.4]octane 2,2-dioxide, and 6-((R)-3-(3-chloro-4-((1r,4R)-4-hydroxy-4-(trifluoromethyl)cyclohexyl)phenyl)-2-methylpropyl)-2-thia-6-azaspiro[3.4]octane 2,2-dioxide]",9.31,0.81,2,,
"O=S1(=O)CC2(CCN(CCOc3ccc([C@H]4CC[C@H](C(F)(F)F)CC4)nc3)CC2)C1 [247A*, 7-(2-((6-((trans)-4-(Trifluoromethyl)cyclohexyl)pyridin-3-yl)oxy)ethyl)-2-thia-7-azaspiro[3.5]nonane 2,2-dioxide]",5.72,,,3.16,22.8
CCC(C)(C)c1ccc(CC(C)CN2CCC3(CCS(=O)(=O)C3)C2)cc1 (stereo not drawn) [Compound 106],8.38,,,8.5,47
"CC(C)(CN1CCC2(C1)CS(=O)(=O)C2)Oc1ccc(C(F)(F)F)cc1 [Compound 120, 6-(2-Methyl-2-(4-(trifluoromethyl)phenoxy)propyl)-2-thia-6-azaspiro[3.4]octane 2,2-dioxide]",17.7,,,4,6.4
"O=S1(=O)CC2(CCN(CCCc3ccc(OC(F)(F)F)cc3)CC2)C1 [Compound 213, 7-(3-(4-(Trifluoromethoxy)phenyl)propyl)-2-thia-7-azaspiro[3.5]nonane 2,2-dioxide]",12,,,5,4.7
"O=S1(=O)CCC2(CC1)CN(CCOc1ccc(F)c(F)c1)C2 [Compound 214, 2-(2-(3,4-Difluorophenoxy)ethyl)-7-thia-2-azaspiro[3.5]nonane 7,7-dioxide]",40.8,,,15,50.4
"O=S1(=O)CC2(CCN(CCOc3ccc(OC(F)(F)F)cc3)CC2)C1 [Compound 218, 7-(2-(4-(Trifluoromethoxy)phenoxy)ethyl)-2-thia-7-azaspiro[3.5]nonane 2,2-dioxide]",6.54,,,0.93,2.5
"O=S1(=O)CCC2(CC1)CN(CCOc1ccc(F)c(Cl)c1)C2 [Compound 219, 2-(2-(3-Chloro-4-fluorophenoxy)ethyl)-7-thia-2-azaspiro[3.5]nonane 7,7-dioxide]",22.1,,,6.9,22.2
"O=S1(=O)CC2(CCN(CC3(Oc4ccc(C(F)(F)F)cc4)CCC3)CC2)C1 [Compound 222, 7-((1-(4-(Trifluoromethyl)phenoxy)cyclobutyl)methyl)-2-thia-7-azaspiro[3.5]nonane 2,2-dioxide]",3.7,,,3.7,16
"O=S1(=O)CCC2(CC1)CN(CCCc1ccc(C(F)(F)F)nc1)C2 [Compound 223, 2-(3-(6-(Trifluoromethyl)pyridin-3-yl)propyl)-7-thia-2-azaspiro[3.5]nonane 7,7-dioxide]",555,,,120,355

# The remaining lines, values ahead:
Ki [1] [nM],EC50 ([2]; 24 hours) [nM],EC50 (EpiSC-derived OPCs) [nM],"EC50 ([2]; Mus musculus, 24 h) [nM]","EC50 (EpiSC-derived OPCs; Mus musculus, 72 h) [nM]",Structure (SMILES)
24.3,,,12.2,23.5,"O=S1(=O)CC2(CCN(CCCc3ccc(F)c(F)c3)CC2)C1 [Compound 225, 7-(3-(3,4-Difluorophenyl)propyl)-2-thia-7-azaspiro[3.5]nonane 2,2-dioxide]"
9.29,,,0.88,2.2,"O=S1(=O)CC2(CCN(CCOc3ccc(C(F)(F)F)cc3)CC2)C1 [Compound 226, 7-(2-(4-(Trifluoromethyl)phenoxy)ethyl)-2-thia-7-azaspiro[3.5]nonane 2,2-dioxide]"
7.95,,,0.94,2.8,"O=S1(=O)CC2(CCN(CCOc3ccc(C(F)(F)F)c(F)c3)CC2)C1 [Compound 228, 7-(2-(3-Fluoro-4-(trifluoromethyl)phenoxy)ethyl)-2-thia-7-azaspiro[3.5]nonane 2,2-dioxide]"
110,,,34,135,"O=S1(=O)CC2(CCN(CCOc3ccc(F)cn3)CC2)C1 [Compound 229, 7-(2-((5-Fluoropyridin-2-yl)oxy)ethyl)-2-thia-7-azaspiro[3.5]nonane 2,2-dioxide]"
7.31,,,0.32,0.9,"CC(C)(CN1CCC2(CC1)CS(=O)(=O)C2)Oc1ccc(Cl)c(F)c1 [Compound 231, 7-(2-(4-Chloro-3-fluorophenoxy)-2-methylpropyl)-2-thia-7-azaspiro[3.5]nonane 2,2-dioxide]"
13.2,,,1.5,5.7,"CC(C)(CN1CCC2(CC1)CS(=O)(=O)C2)Oc1cccc(C(F)(F)F)c1 [Compound 233, 7-(2-Methyl-2-(3-(trifluoromethyl)phenoxy)propyl)-2-thia-7-azaspiro[3.5]nonane 2,2-dioxide]"
17,,,2.64,3.89,"O=S1(=O)CC2(CCN(CCOc3ccnc(C(F)(F)F)c3)CC2)C1 [Compound 236, 7-(2-((2-(Trifluoromethyl)pyridin-4-yl)oxy)ethyl)-2-thia-7-azaspiro[3.5]nonane 2,2-dioxide]"
14.1,,,2.89,13.7,"O=S1(=O)CC2(CCN(CCOc3ccc(-c4ccc(C(F)(F)F)nc4)cc3)CC2)C1 [Compound 238, 7-(2-(4-(6-(Trifluoromethyl)pyridin-3-yl)phenoxy)ethyl)-2-thia-7-azaspiro[3.5]nonane 2,2-dioxide]"
41.9,,,39.8,374,CC(C)n1nc(C(F)(F)F)cc1OCCN1CCC2(CC1)CS(=O)(=O)C2 [Compound 239]
1.96,,,75.5,346,"O=S1(=O)CC2(CCN(CCOc3cnc(C4CCCCC4)c(Cl)c3)CC2)C1 [Compound 240, 7-[2-[(5-Chloro-6-cyclohexyl-3-pyridyl)oxy]ethyl]-26-thia-7-azaspiro[3.5]nonane 2,2-dioxide]"
12.2,,,1.26,2.62,"O=S1(=O)CC2(CCN(CCOc3cnc([C@H]4CC[C@H](C(F)(F)F)CC4)c(Cl)c3)CC2)C1 [Compound 246, 7-(2-((5-Chloro-6-((trans)-4-(trifluoromethyl)cyclohexyl)pyridin-3-yl)oxy)ethyl)-2-thia-7-azaspiro[3.5]nonane 2,2-dioxide]"
31.6,,,25.6,74.1,"O=S1(=O)CC2(CCN(CCOc3cnc([C@H]4CC[C@H](C(F)(F)F)CC4)c(F)c3)CC2)C1 [Compound 249, 7-(2-((5-Fluoro-6-((trans)-4-(trifluoromethyl)cyclohexyl)pyridin-3-yl)oxy)ethyl)-2-thia-7-azaspiro[3.5]nonane 2,2-dioxide]"
